The subject of test [1] is human umbilical vein endothelial cells (HUVEC). The experiment in a line: HUVEC proliferation assay. It counts as cell-based. Particulars: Homo sapiens, HUVEC, Table 2. In outline: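 Exponentially growing HUVEC were serum-starved 24 h (F12K + 1% FBS), pre-treated 1 h with compound (0.1% DMSO final), then stimulated with 6 ng/ml VEGF. Proliferation was read 72 h later by MTT reduction (A595). IC50 came from seven 0.5-log concentrations in triplicate; screens gave % inhibition relative to VEGF-only and starved wells.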

For the next test, the target named is T1, LCK tyrosine kinase (Homo sapiens, UniProt P06239, C224D/P223M).
T1 construct: starting from amino acid residue 223 to the end of the protein at residue 509; made in house; host or cells: insect cells
T1 sequence (P06239 223-509 P223M/C224D): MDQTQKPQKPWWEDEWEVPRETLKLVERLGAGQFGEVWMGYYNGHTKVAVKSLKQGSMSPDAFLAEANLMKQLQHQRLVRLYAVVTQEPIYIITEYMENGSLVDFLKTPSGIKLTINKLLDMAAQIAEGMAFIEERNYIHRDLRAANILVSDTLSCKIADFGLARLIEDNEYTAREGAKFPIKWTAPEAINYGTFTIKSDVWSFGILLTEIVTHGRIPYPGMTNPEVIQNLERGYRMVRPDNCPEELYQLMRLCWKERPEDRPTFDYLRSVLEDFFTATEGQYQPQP
The experiment in a line: LCK spectrophotometric assay. Format: biochemical. The conditions noted are these: Table 2; for LCK % inhibition @ 1: at 1 (head μM). The protocol:
LCK Construct for Assay: The LCK tyrosine kinase was expressed in insect cells as an N-terminal deletion starting from amino acid residue 223 to the end of the protein at residue 509, with the following two amino acid substitutions at the N-terminus: […] and C224D.
The spectrophotometric assay was carried out as described above for VEGF-R2, except for the following changes in concentration: LCK=60 nM, MgCl2=0 mM, poly(E4Y1)=20 mM.

Test [2] has as its target T2, phosphorylated VEGF-R2Δ50 (FLVK-P) (Homo sapiens, UniProt P35968, DEL940-989/E990V).
T2 construct: VEGF-R2Δ50 contains residues 806-939 and 990-1171; made in house; host or cells: baculovirus/insect cells
Nature of the test: VEGF-R2 coupled spectrophotometric (FLVK-P) assay. Format: biochemical. Particulars: Table 2; spectrophotometric assay. In outline:
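Baculovirus-expressed human VEGF-R2Δ50 (residues 806-939/990-1171, E990V) was autophosphorylated with 3 mM ATP, 40 mM MgCl2 for 2 h at 4° C. ADP formation was coupled via PK/LDH to NADH oxidation, read at 340 nm, with 5.1 mM poly(E4Y1), 1 mM ATP, 25 mM MgCl2, Hepes pH 7.5. Ki came from activity across compound concentrations.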

pIC50, pKi: −log10 of the molar value.

From patent US6620828B2, “Thiazole compounds and pharmaceutical compositions for inhibiting protein kinases and methods for their use” (Agouron Pharmaceuticals, Inc., priority 1999, dated 2003) come the findings set out here.

As a reminder, the pIC50 is the negative decadic logarithm of the IC50, by convention in mol/L. A lower pIC50 goes with a large IC50. The term pKi denotes the negative decadic logarithm of the Ki, by convention in mol/L. Lower therefore signals a high Ki.

T2 sequence (P35968 with tags, fused parts or gaps DEL940-989/E990V limits assumed): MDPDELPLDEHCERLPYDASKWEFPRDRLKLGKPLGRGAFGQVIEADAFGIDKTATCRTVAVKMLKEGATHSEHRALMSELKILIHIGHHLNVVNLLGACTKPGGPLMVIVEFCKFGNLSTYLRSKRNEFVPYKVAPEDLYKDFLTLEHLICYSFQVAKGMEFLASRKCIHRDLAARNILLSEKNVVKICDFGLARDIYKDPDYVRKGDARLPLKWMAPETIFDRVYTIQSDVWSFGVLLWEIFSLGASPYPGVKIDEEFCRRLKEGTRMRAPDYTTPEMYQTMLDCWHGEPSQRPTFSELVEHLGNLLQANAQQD

`COc1cc(Nc2nc(N)c(-c3nc(-c4cccc(O)c4)no3)s2)cc(OC)c1OC` [K(1), 3-{5-[4-Amino-2-(3,4,5-trimethoxy-phenylamino)-thiazol-5-yl]-[1,2,4]oxadiazol-3-yl}-phenol] showed a pIC50 in test [1] of 6.02. Moreover, on LCK tyrosine kinase, the “LCK % inhibition @ 1” value turned out to be 42% @. Also, the pKi in test [2] is 8.22.

Turning to `COc1cc(Nc2nc(N)c(-c3nc(-c4cccc(O)c4)cs3)s2)cc(OC)c1OC` [A(17), 3-[4′-Amino-2′-(3,4,5-trimethoxy-phenylamino)-[2,5′]bithiazolyl-4-yl]-phenol], the pIC50 in test [1] is under 6.00. The “LCK % inhibition @ 1” value on LCK tyrosine kinase is on record as 21% @. Besides, the pKi in test [2] is 8.52.

Consider `CCCNc1nc(N)c(-c2nc(-c3cccc(O)c3)cs2)s1` [A(29), 3-(4′-Amino-2′-propylamino-[2,5′]bithiazolyl-4-yl)-phenol], for which the pIC50 in test [1] was under 6.00. In addition, the “LCK % inhibition @ 5” value on LCK tyrosine kinase (at 5 (head μM)) amounted to 10% @. The pKi in test [2] is 7.11.
